Measured values taken from EP0910563B1, “INTEGRIN RECEPTOR ANTAGONISTS” (SMITHKLINE BEECHAM CORPORATION, priority 1995, dated 1997).

Columns and labels:
[1] = target: T1, αvβ3 (Homo sapiens, UniProt P05106+P06756); assay: Solid-phase [3H]-SK&F-107260 binding to αvβ3 (inhibition of vitronectin binding); conditions: human placenta or platelet αvβ3 on ELISA plates, 5.0 nM [3H]-SK&F-107260
T1 construct: Human placenta or human platelet αvβ3 (0.1-0.3 mg/mL) in buffer T; from tissue; host or cells: human placenta or human platelets
Experimental: Solid-Phase [^3H]-SK&F-107260 Binding to αvβ3: Human placenta or human platelet αvβ3 (0.1-0.3 mg/mL) in buffer T (containing 2 mM CaCl2 and 1% octylglucoside) was diluted with buffer T containing 1 mM CaCl2, 1 mM MnCl2, 1 mM MgCl2 (buffer A) and 0.05% NaN3, and then immediately added to 96-well ELISA plates (Corning, New York, NY) at 0.1 mL per well. 0.1 - 0.2 µg of αvβ3 was added per well. The plates were incubated overnight at 4°C. At the time of the experiment, the wells were washed once with buffer A and were incubated with 0.1 mL of 3.5% bovine serum albumin in the same buffer for 1 hr at room temperature. Following incubation the wells were aspirated completely and washed twice with 0.2 mL buffer A. […]
The plates were incubated for 1 hr at room temperature. […] The receptors were solubilized with 0.1 mL of 1% SDS and the bound [^3H]-SK&F-107260 was determined by liquid scintillation counting with the addition of 3 mL Ready Safe in a Beckman LS Liquid Scintillation Counter, with 40% efficiency. Nonspecific binding of [^3H]-SK&F-107260 was determined in the presence of 2 µM SK&F-107260 and was consistently less than 1% of total radioligand input. […] The Ki (dissociation constant of the antagonist) was calculated according to the equation: Ki = IC50/(1 + L/Kd), where L and Kd were the concentration and the dissociation constant of [^3H]-SK&F-107260, respectively.

[2] = target: T2, fibrinogen receptor (αIIbβ3) (Homo sapiens, UniProt P05106+P08514); assay: Competitive binding of [3H]-SK&F-107260 to αIIbβ3 in liposomes; conditions: purified platelet αIIbβ3-containing liposomes, 4.5 nM [3H]-SK&F-107260
T2 construct: followed by the addition of 1 µg of the purified platelet αIIbβ3-containing liposomes; tissue Red Cross (platelets); host or cells: outdated, washed human platelets; lentil lectin sepharose purification
Experimental: Ten units of outdated, washed human platelets (obtained from Red Cross) were lyzed by gentle stirring in 3% octylglucoside, 20 mM Tris-HCl, pH 7.4, 140 mM NaCl, 2 mM CaCl2 at 4°C for 2 h. The lysate was centrifuged at 100,000g for 1 h. The supernatant obtained was applied to a 5 mL lentil lectin sepharose 4B column (E.Y. Labs) preequilibrated with 20 mM Tris-HCl, pH 7.4, 100 mM NaCI, 2 mM CaCl2, 1% octylglucoside (buffer A). After 2 h incubation, the column was washed with 50 mL cold buffer A. The lectin-retained αIIbβ3 was eluted with buffer A containing 10% dextrose. All procedures were performed at 4°C. The αIIbβ3 obtained was >95% pure as shown by SDS polyacrylamide gel electrophoresis. […]
The binding to the fibrinogen receptor (αIIbβ3) was assayed by an indirect competitive binding method using [^3H]-SK&F-107260 as an RGD-type ligand. […] Bound radioactivity remaining on the filters was counted in 1.5 mL Ready Solve (Beckman Instruments, Fullerton, CA) in a Beckman Liquid Scintillation Counter (Model LS6800), with 40% efficiency. Nonspecific binding was determined in the presence of 2 µM unlabeled SK&F-107260 and was consistently less than 0.14% of the total radioactivity added to the samples. […]
Competition binding data were analyzed by a nonlinear least-squares curve fitting procedure. […]

T1 sequence (P06756 31-889 limits assumed): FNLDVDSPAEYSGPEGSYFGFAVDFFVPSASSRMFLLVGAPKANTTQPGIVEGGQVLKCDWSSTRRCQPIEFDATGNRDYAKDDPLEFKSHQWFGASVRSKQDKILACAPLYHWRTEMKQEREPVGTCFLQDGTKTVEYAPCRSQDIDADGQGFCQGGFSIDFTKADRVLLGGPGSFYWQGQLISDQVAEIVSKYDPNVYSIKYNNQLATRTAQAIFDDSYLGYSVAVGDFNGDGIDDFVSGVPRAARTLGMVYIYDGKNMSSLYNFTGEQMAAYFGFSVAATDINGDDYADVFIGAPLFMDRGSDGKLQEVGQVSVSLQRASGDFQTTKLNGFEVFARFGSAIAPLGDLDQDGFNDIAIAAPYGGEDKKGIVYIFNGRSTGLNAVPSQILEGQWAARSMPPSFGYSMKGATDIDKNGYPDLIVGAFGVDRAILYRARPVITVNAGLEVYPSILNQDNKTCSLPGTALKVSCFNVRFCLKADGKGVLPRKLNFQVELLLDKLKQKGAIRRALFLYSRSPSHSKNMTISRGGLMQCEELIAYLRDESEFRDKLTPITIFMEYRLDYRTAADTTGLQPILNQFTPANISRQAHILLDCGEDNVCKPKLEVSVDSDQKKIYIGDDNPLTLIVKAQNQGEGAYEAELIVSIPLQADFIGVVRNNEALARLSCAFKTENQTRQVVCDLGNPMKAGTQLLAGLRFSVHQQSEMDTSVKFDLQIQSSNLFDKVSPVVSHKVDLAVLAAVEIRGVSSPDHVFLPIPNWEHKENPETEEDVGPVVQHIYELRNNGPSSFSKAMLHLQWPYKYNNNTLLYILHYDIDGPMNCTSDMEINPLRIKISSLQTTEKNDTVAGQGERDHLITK
T1 sequence (P06756 891-1048 partner limits assumed): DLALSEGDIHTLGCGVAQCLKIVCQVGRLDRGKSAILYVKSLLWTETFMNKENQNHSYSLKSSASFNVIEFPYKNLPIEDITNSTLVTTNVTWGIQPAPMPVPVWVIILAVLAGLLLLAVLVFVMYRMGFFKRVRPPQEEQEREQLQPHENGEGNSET
T1 sequence (P05106 27-788): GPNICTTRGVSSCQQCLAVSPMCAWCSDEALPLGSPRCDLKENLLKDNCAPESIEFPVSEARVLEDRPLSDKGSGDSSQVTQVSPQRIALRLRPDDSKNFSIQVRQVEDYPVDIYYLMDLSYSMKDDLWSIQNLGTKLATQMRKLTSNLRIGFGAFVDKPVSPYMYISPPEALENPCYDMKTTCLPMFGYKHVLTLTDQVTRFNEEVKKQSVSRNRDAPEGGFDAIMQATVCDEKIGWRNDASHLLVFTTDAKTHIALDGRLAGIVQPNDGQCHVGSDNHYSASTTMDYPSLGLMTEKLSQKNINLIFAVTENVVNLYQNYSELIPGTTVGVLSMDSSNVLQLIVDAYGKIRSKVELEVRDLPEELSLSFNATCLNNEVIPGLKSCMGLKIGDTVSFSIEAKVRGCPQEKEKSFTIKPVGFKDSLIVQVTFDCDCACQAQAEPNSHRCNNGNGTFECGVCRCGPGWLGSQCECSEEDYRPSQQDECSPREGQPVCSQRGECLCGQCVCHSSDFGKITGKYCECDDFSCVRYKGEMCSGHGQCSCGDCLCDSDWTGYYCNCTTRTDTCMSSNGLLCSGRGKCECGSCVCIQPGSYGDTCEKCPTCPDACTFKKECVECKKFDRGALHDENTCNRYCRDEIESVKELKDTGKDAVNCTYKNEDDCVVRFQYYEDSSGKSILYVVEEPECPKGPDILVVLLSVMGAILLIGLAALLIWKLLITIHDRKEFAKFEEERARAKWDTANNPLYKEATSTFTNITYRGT
T2 sequence (P08514 32-887 limits assumed): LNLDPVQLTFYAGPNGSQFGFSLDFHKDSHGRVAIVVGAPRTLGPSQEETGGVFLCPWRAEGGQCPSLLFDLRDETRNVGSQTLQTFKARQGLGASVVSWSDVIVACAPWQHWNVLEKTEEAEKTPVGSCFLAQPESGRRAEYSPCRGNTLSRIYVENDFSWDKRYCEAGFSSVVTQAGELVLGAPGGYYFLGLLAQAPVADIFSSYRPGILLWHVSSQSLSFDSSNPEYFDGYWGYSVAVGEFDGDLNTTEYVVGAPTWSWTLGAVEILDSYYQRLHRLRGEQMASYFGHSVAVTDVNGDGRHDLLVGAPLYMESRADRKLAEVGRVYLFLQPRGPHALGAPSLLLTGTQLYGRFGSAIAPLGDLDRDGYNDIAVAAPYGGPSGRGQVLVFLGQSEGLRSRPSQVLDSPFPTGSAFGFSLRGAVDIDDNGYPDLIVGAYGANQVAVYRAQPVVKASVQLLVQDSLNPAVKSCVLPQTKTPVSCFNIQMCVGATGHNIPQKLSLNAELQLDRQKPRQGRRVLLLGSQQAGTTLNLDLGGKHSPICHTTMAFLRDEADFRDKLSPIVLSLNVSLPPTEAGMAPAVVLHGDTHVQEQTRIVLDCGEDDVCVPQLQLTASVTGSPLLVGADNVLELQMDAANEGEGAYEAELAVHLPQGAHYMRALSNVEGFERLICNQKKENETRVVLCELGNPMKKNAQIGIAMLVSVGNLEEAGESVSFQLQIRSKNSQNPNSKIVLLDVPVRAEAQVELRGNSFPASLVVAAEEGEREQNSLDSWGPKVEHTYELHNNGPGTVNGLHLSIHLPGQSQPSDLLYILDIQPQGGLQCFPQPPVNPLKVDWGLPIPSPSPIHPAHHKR
T2 sequence (P08514 891-1039 partner limits assumed): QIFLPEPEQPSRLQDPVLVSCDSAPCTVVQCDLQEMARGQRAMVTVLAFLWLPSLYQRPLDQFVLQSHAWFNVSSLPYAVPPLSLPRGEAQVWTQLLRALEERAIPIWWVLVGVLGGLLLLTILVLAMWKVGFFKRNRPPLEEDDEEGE
T2 sequence (P05106 27-788): as the sequence (P05106 27-788) above

| Ki [1] | Ki [2] | Structure (SMILES) |
| --- | --- | --- |
| 23 nM | > 50000 nM | CN(Cc1nc2ccccc2[nH]1)C(=O)c1ccc2c(c1)Cc1ccccc1C(CC(=O)O)C2 (racemic) [Example 1, (±)-10,11-dihydro-3-[[[(1H-benzimidazol-2-yl)methyl]methylamino]carbonyl]-5H-dibenzo[a,d]cycloheptene-10-acetic acid] |
| 15000 nM | 9 nM | O=C(O)CC1Cc2ccc(C(=O)N3CCC(C4CCNCC4)CC3)cc2Cc2ccccc21 (racemic) [Example 2, (±)-10,11-dihydro-3-[1-(4,4'-bipiperidinyl)carbonyl]-5H-dibenzo[a,d]cycloheptene-10-acetic acid] |
